Test results as given in ChEMBL document CHEMBL1155492, “Evaluation of thieno[3,2-b]pyrrole[3,2-d]pyridazinones as activators of the tumor cell specific M2 isoform of pyruvate kinase” (Bioorg Med Chem Lett, 2010).
Calls of active or inactive are those of the source. No cut-off for these calls is given here.

Legend:
[1] = molecular target: Pyruvate kinase PKM (Homo sapiens) (UniProt P14618); assay: Activation of PKM1 assessed as ATP product formation by luminescent pyruvate kinase-luciferase coupled assay
Sequence of Pyruvate kinase PKM (Homo sapiens) (P14618 2-531 limits assumed): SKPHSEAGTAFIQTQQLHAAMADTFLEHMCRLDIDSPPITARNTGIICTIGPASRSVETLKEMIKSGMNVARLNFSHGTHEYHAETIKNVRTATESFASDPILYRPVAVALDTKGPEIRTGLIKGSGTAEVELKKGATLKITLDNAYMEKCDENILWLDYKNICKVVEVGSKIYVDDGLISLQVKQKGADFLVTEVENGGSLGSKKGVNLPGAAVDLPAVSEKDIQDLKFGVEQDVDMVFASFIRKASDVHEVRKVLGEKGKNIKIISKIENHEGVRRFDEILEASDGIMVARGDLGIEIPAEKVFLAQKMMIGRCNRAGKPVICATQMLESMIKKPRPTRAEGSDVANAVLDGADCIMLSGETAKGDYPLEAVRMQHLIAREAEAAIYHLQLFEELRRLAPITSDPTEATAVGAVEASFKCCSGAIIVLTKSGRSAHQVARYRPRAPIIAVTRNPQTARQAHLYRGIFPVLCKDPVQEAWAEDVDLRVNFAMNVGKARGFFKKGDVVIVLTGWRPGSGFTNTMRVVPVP

[2] = molecular target: Pyruvate kinase PKM (Homo sapiens) (UniProt P14618); assay: Maximum activation of human PKM2 assessed as ATP product formation at 57 uM after 1 hr by luminescent pyruvate kinase-luciferase coupled assay relative to fructose-1,6-bis-phosphate
[3] = molecular target: Pyruvate kinase PKM (Homo sapiens) (UniProt P14618); assay: Activation of PKM1 assessed as pyruvate formation by fluorescent pyruvate kinase-lactate dehydrogenase coupled assay
[4] = system: O=P(O)(O)OC[C@H]1O[C@@](O)(COP(=O)(O)O)[C@@H](O)[C@@H]1O; assay: Activation of human PKM2 assessed as effect on Km for ADP
[5] = system: O=P(O)(O)OC[C@H]1O[C@@](O)(COP(=O)(O)O)[C@@H](O)[C@@H]1O; assay: Activation of human PKM2 assessed as reduction of Km for phosphoenolpyruvate

Sequence of Pyruvate kinase PKM (Homo sapiens), P14618 (P14618 whole entry): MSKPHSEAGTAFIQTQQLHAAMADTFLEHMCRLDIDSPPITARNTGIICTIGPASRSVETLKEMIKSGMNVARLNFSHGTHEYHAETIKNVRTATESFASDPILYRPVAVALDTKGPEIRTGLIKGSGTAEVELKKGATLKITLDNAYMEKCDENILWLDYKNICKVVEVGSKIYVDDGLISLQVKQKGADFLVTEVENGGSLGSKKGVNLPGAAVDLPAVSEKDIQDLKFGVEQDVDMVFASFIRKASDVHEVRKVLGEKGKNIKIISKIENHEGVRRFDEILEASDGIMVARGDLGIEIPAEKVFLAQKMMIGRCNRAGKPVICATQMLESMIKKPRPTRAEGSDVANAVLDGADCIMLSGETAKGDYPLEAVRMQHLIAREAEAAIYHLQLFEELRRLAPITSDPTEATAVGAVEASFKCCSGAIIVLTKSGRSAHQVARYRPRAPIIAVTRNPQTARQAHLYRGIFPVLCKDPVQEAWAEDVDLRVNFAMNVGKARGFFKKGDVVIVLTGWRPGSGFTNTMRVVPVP

COc1cccc(Cn2ncc3c4sc([S+](C)[O-])cc4n(C)c3c2=O)c1 (stereo not drawn)
Activity [1]: inactive
Activity [2]: 99%
Activity [3]: inactive

Cc1cc2c(s1)c1cnn(Cc3c(F)cccc3F)c(=O)c1n2C
Activity [1]: inactive
Activity [2]: 94%
Activity [3]: inactive

CCCCCn1ncc2c3sc(C)cc3n(C)c2c1=O
Activity [1]: inactive
Activity [2]: 47%
Activity [3]: inactive

Cc1cc2c(s1)c1cnn(Cc3ccccc3Cl)c(=O)c1n2C
Activity [1]: inactive
Activity [2]: 96%
Activity [3]: inactive

COc1cc2c(s1)c1cnn(Cc3ccccc3F)c(=O)c1n2C
Activity [1]: inactive
Activity [3]: inactive

Cc1cc2c(s1)c1cnn(Cc3ccc(F)cc3)c(=O)c1n2C
Activity [1]: inactive
Activity [2]: 102%
Activity [3]: inactive

Cn1c2cc(C#N)sc2c2cnn(Cc3ccccc3F)c(=O)c21
Activity [1]: inactive
Activity [2]: 84%
Activity [3]: inactive

CC(C)c1cc2c(s1)c1cnn(Cc3ccccc3F)c(=O)c1n2C
Activity [1]: inactive
Activity [2]: 106%
Activity [3]: inactive

COC(=O)c1cc2c(s1)c1cnn(Cc3ccccc3F)c(=O)c1n2C
Activity [1]: inactive
Activity [2]: 70%
Activity [3]: inactive

Cn1c2ccsc2c2cnn(Cc3ccccc3F)c(=O)c21
Activity [1]: inactive
Activity [2]: 93%
Activity [3]: inactive

Cc1cc2c(s1)c1cnn(Cc3cccc(F)c3F)c(=O)c1n2C
Activity [1]: inactive
Activity [2]: 73%
Activity [3]: inactive

CC(=O)Nc1cc2c(s1)c1cnn(Cc3ccccc3F)c(=O)c1n2C
Activity [1]: inactive
Activity [2]: 59%
Activity [3]: inactive

Cc1cc2c(s1)c1cnn(-c3ccccc3)c(=O)c1n2C
Activity [1]: inactive
Activity [2]: inactive
Activity [3]: inactive

Cc1cc2c(s1)c1cnn(Cc3ccccc3)c(=O)c1n2C
Activity [1]: inactive
Activity [3]: inactive

Cc1cc2c(s1)c1cnn(Cc3cccc(F)c3)c(=O)c1n2C
Activity [1]: inactive
Activity [2]: 92%
Activity [3]: inactive

CCc1cc2c(s1)c1cnn(Cc3ccccc3F)c(=O)c1n2C
Activity [1]: inactive
Activity [2]: 105%
Activity [3]: inactive

Cc1cc2c(s1)c1cnn(Cc3ccccc3F)c(=O)c1n2C
Activity [1]: inactive
Activity [2]: 122%
Activity [3]: inactive

CC(=O)c1cc2c(s1)c1cnn(Cc3ccccc3F)c(=O)c1n2C
Activity [1]: inactive
Activity [2]: 108%
Activity [3]: inactive

Cc1cc2c(s1)c1cnn(Cc3cccc(C)c3F)c(=O)c1n2C
Activity [1]: inactive
Activity [2]: 97%
Activity [3]: inactive

Cn1c2cc([S+](C)[O-])sc2c2cnn(Cc3ccccc3F)c(=O)c21 (stereo not drawn)
Activity [1]: inactive
Activity [2]: 98%
Activity [3]: inactive

Cc1cc2[nH]c3c(=O)n(Cc4ccccc4F)ncc3c2s1
Activity [1]: inactive
Activity [2]: inactive
Activity [3]: inactive

Cc1cc2c(s1)c1cnn(Cc3ccc(C(F)(F)F)cc3)c(=O)c1n2C
Activity [1]: inactive
Activity [2]: 56%
Activity [3]: inactive

CSc1cc2c(s1)c1cnn(Cc3ccccc3F)c(=O)c1n2C
Activity [1]: inactive
Activity [2]: 96%
Activity [3]: inactive

Cc1cc2c(s1)c1cnn(Cc3ccccc3F)c(=O)c1n2C(C)C
Activity [1]: inactive
Activity [2]: inactive
Activity [3]: inactive

Cn1c2cc(CO)sc2c2cnn(Cc3ccccc3F)c(=O)c21
Activity [1]: inactive
Activity [2]: 103%
Activity [3]: inactive

COc1ccc(Cn2ncc3c4sc(C)cc4n(C)c3c2=O)cc1F
Activity [1]: inactive
Activity [2]: 68%
Activity [3]: inactive

Cc1ccc(Cn2ncc3c4sc(C)cc4n(C)c3c2=O)c(F)c1
Activity [1]: inactive
Activity [2]: 81%
Activity [3]: inactive

Cc1cc2c(s1)c1cnn(Cc3c(F)cccc3Cl)c(=O)c1n2C
Activity [1]: inactive
Activity [2]: 93%
Activity [3]: inactive

Cc1cc2c(s1)c1cnn(Cc3ccc(Cl)cc3)c(=O)c1n2C
Activity [1]: inactive
Activity [2]: 91%
Activity [3]: inactive

Cc1cc2c(s1)c1c(C)nn(Cc3ccccc3F)c(=O)c1n2C
Activity [1]: inactive
Activity [2]: 56%
Activity [3]: inactive

COc1ccc(Cn2ncc3c4sc(C)cc4n(C)c3c2=O)cc1
Activity [1]: inactive
Activity [2]: 96%
Activity [3]: inactive

Cc1cc2c(s1)c1cnn(Cc3ccc(C(F)(F)F)cc3F)c(=O)c1n2C
Activity [1]: inactive
Activity [2]: 59%
Activity [3]: inactive

CCn1c2cc(C)sc2c2cnn(Cc3ccccc3F)c(=O)c21
Activity [1]: inactive
Activity [2]: 96%
Activity [3]: inactive

Cn1c2cc([N+](=O)[O-])sc2c2cnn(Cc3ccccc3F)c(=O)c21
Activity [1]: inactive
Activity [3]: inactive

Pyruvate kinase PKM (Homo sapiens), P14618
Km [4]: 100 µM
Km [5]: 100 µM

Cn1c2cc(C=O)sc2c2cnn(Cc3ccccc3F)c(=O)c21
Activity [1]: inactive
Activity [2]: 100%
Activity [3]: inactive

Cn1c2cc(B(O)O)sc2c2cnn(Cc3ccccc3F)c(=O)c21
Activity [1]: inactive
Activity [2]: 101%
Activity [3]: inactive

Cc1ccc(Cn2ncc3c4sc(C)cc4n(C)c3c2=O)cc1
Activity [1]: inactive
Activity [2]: 84%
Activity [3]: inactive

CC(O)c1cc2c(s1)c1cnn(Cc3ccccc3F)c(=O)c1n2C (stereo not drawn)
Activity [1]: inactive
Activity [2]: 120%
Activity [3]: inactive

Cn1c2cc(S(C)(=O)=O)sc2c2cnn(Cc3ccccc3F)c(=O)c21
Activity [1]: inactive
Activity [2]: inactive
Activity [3]: inactive

Cn1c2cc([S+](C)[O-])sc2c2cnn(Cc3cccc(O)c3)c(=O)c21 (stereo not drawn)
Activity [1]: inactive
Activity [2]: 102%
Activity [3]: inactive

Cc1cc2c(s1)c1cnn(Cc3c(F)c(F)cc(F)c3F)c(=O)c1n2C
Activity [1]: inactive
Activity [2]: 59%
Activity [3]: inactive

Cc1cc2c(s1)c1cnn(Cc3ccc(F)cc3F)c(=O)c1n2C
Activity [1]: inactive
Activity [3]: inactive

Cc1cc2c(s1)c1cnn(Cc3ccc(F)c(F)c3F)c(=O)c1n2C
Activity [1]: inactive
Activity [2]: 69%
Activity [3]: inactive

Cc1cc2c(s1)c1cnn(Cc3cccc(Cl)c3)c(=O)c1n2C
Activity [1]: inactive
Activity [2]: 99%
Activity [3]: inactive

Cn1c2ccsc2c2ncn(Cc3ccccc3F)c(=O)c21
Activity [1]: inactive
Activity [2]: 61%
Activity [3]: inactive
